Test results reported in PubChem BioAssay (NCI).
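Tested at 5 concentrations; 48 h exposure; 96-well plates; endpoints linearly interpolated, else capped at highest concentration. Definition used: TGI = concentration required for complete inhibition of growth.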

Columns and labels:
Experiment in all cases: NCI-60 cell line screen, 48 h
[1] = tested on: LOX IMVI melanoma
[2] = tested on: RXF 393 renal
[3] = tested on: RPMI-8226 leukemia
[4] = tested on: SN12C renal
[5] = tested on: BT-549 breast
[6] = tested on: NCI-H522 lung
[7] = tested on: HCT-116 colon
[8] = tested on: A549 NSCLC
[9] = tested on: SNB-75 CNS
[10] = tested on: UACC-257 melanoma
[11] = tested on: HCC-2998 colon
[12] = tested on: OVCAR-5 ovarian
[13] = tested on: KM12 colon
[14] = tested on: CCRF-CEM leukemia
[15] = tested on: K-562 leukemia
[16] = tested on: SNB-19 CNS
[17] = tested on: DU-145 prostate
[18] = tested on: NCI/ADR-RES ovarian
[19] = tested on: M14 melanoma
[20] = tested on: SF-539 CNS
[21] = tested on: SR leukemia
[22] = tested on: NCI-H226 lung
[23] = tested on: SF-268 CNS
[24] = tested on: HT29 colon
[25] = tested on: IGROV1 ovarian
[26] = tested on: SK-OV-3 ovarian
[27] = tested on: MCF7 breast
[28] = tested on: MDA-MB-231 breast
[29] = tested on: NCI-H460 lung
[30] = tested on: SF-295 CNS
[31] = tested on: MDA-MB-435
[32] = tested on: UO-31 renal
[33] = tested on: HOP-92 NSCLC
[34] = tested on: SK-MEL-28 melanoma
[35] = tested on: SK-MEL-2 melanoma
[36] = tested on: HS 578T breast
[37] = tested on: SK-MEL-5 melanoma
[38] = tested on: MALME-3M melanoma
[39] = tested on: OVCAR-8 ovarian
[40] = tested on: T-47D breast
[41] = tested on: MOLT-4 leukemia
[42] = tested on: PC-3 prostate
[43] = tested on: HCT-15 colon
[44] = tested on: NCI-H23 lung
[45] = tested on: 786-0 renal
[46] = tested on: ACHN renal
[47] = tested on: MDA-N
[48] = tested on: UACC-62 melanoma
[49] = tested on: EKVX NSCLC
[50] = tested on: A498 renal
[51] = tested on: CAKI-1 renal
[52] = tested on: TK-10 renal
[53] = tested on: OVCAR-3 ovarian
[54] = tested on: OVCAR-4 ovarian
[55] = tested on: SW-620 colon
[56] = tested on: U251 CNS
[57] = tested on: COLO 205 colon
[58] = tested on: HOP-62 NSCLC
[59] = tested on: HL-60(TB) leukemia

`C=C1c2nc3ccccc3n2C=C(c2ccc(C)cc2)N1c1ccccc1` was tested, and the TGI [1] was 66 µM, the TGI [2] was greater than 44 µM and the TGI [3] was greater than 34.5 µM. The TGI [4] was greater than 100 µM, the TGI [5] was greater than 86.7 µM and the TGI [6] was 25.2 µM. It also gave a TGI [7] greater than 81 µM, a TGI [8] greater than 100 µM and a TGI [9] of 15.9 µM. It also gave a TGI [10] greater than 100 µM, a TGI [11] of 10.7 µM and a TGI [12] greater than 100 µM. The TGI [13] was 22 µM, the TGI [14] was greater than 54.8 µM and the TGI [15] was greater than 100 µM. For the same compound, the TGI [16] was greater than 100 µM, the TGI [17] was greater than 100 µM and the TGI [18] was greater than 29.1 µM. The TGI [19] was greater than 61.2 µM, the TGI [20] was 7.46 µM and the TGI [21] was 6.82 µM. For the same compound, the TGI [22] was 15.3 µM, the TGI [23] was greater than 100 µM and the TGI [24] was 9.77 µM. It also gave a TGI [25] greater than 100 µM, a TGI [26] greater than 100 µM and a TGI [27] greater than 100 µM. For the same compound, the TGI [28] was greater than 53.6 µM, the TGI [29] was 27.1 µM and the TGI [30] was 13.6 µM. The TGI [31] was 10.7 µM, the TGI [32] was greater than 100 µM and the TGI [33] was greater than 100 µM. For the same compound, the TGI [34] was greater than 100 µM, the TGI [35] was greater than 46.1 µM and the TGI [36] was greater than 30.6 µM. It also gave a TGI [37] of 31.9 µM, a TGI [38] greater than 43.3 µM and a TGI [39] greater than 63.4 µM. It also gave a TGI [40] greater than 100 µM, a TGI [41] of 99 µM and a TGI [42] greater than 79.5 µM. For the same compound, the TGI [43] was greater than 38 µM, the TGI [44] was greater than 100 µM and the TGI [45] was greater than 59.9 µM. For the same compound, the TGI [46] was greater than 100 µM, the TGI [47] was 4.39 µM and the TGI [48] was greater than 100 µM. For the same compound, the TGI [49] was greater than 40.6 µM, the TGI [50] was greater than 100 µM and the TGI [51] was greater than 100 µM. The TGI [52] was greater than 100 µM, the TGI [53] was greater than 40.9 µM and the TGI [54] was greater than 100 µM. It also gave a TGI [55] greater than 100 µM, a TGI [56] of 68.2 µM and a TGI [57] greater than 33.2 µM. The TGI [58] was greater than 100 µM and the TGI [59] was 16.3 µM.
